Experimental data published in patent US20050215548A1 (Cyclacel Limited, priority 2002, published 2005).

Molecular target: T1, HDM2 (Homo sapiens, UniProt Q00987)
T1 construct: Recombinant HDM2 (1.5 μg per well) in TBS-BSA buffer
Assay: Fluorescence polarisation competitive HDM2 binding assay
Conditions: fluorescence polarisation format; Table 1; read-out: IC50 In vitro competitive HDM2 binding assay
Protocol: This was carried out using a 96-well microtiter plate (Costar) format. Recombinant HDM2 (1.5 μg per well) in TBS-BSA buffer (50 mM Tris pH 7.4, 150 mM NaCl, and 0.1% BSA) was incubated for 5 min at room temperature in the presence of serially diluted test compound (in TBS-BSA buffer with a final concentration of 5% DMSO). Fluorescently labelled p53-derived peptide (fluorescein-[…]NH2, 0.2 μM) was added to each well and the plate was incubated at room temperature for 45 min. The fluorescence polarisation (excitation 485 nm, emission 520 nm) of the peptide was measured. IC50 values were calculated from dose-response curves.
The fluorescence polarisation competitive HDM2 binding assay described in Example 3 was used. Furthermore, the anti-proliferative potency of the compounds against three human tumour cell lines with different genetic make-up was also determined. […] The cell lines used were as follows: AGS, gastric adenocarcinoma, wild-type p53; H1299, large cell lung carcinoma, p53 null, low HDM2; SJSA-1, primitive multipotential bone sarcoma, wild-type p53, overexpressed HDM2.

T1 sequence (Q00987 whole entry): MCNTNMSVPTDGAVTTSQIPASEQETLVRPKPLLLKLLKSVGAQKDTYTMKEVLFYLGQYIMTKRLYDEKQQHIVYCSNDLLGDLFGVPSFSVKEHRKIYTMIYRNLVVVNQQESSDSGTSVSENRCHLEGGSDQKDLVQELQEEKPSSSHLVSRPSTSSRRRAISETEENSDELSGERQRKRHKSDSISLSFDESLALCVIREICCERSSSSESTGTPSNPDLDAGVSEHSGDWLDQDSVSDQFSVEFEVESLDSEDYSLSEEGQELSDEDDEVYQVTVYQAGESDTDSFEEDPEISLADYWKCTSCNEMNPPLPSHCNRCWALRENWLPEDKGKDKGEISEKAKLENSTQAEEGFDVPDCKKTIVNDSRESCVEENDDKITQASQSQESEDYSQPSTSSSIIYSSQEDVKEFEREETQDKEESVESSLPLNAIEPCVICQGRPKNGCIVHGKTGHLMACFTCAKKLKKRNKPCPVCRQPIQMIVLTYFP

| IC50 | Compound |
| --- | --- |
| 314 ± 29 µM | O=S(=O)(Nc1ccc(Cl)cc1)c1ccc2nsnc2c1 [Compound 121, Benzo[1,2,5]thiadiazole-5-sulfonic acid (4-chloro-phenyl)-amide] |
| 481 µM | Cc1[nH]c(C(=O)O)c(C)c1S(=O)(=O)Nc1cc(C(F)(F)F)cc(C(F)(F)F)c1 [Compound 91, 4-(3,5-Bis-trifluoromethyl-phenylsulfamoyl)-3,5-dimethyl-1H-pyrrole-2-carboxylic acid] |
| 441 ± 69 µM | O=[N+]([O-])c1cccc(S(=O)(=O)Nc2ccc(Cl)cc2Cl)c1 [Compound 22, N-(2,4-Dichlorophenyl)-3-nitrobenzenesulfonamide] |
| 163 ± 27 µM | O=S(=O)(Nc1ccc(C(F)(F)F)cc1)c1cc(Br)c(Br)s1 [Compound 126, 4,5-Dibromo-thiophene-2-sulfonic acid (4-trifluoromethyl-phenyl)-amide] |
| 248 ± 29 µM | Nc1ccc(S(=O)(=O)Nc2cc(C(F)(F)F)cc(C(F)(F)F)c2)cc1Cl [Compound 99, 4-Amino-N-(3,5-bis-trifluoromethyl-phenyl)-3-chloro-benzenesulfonamide] |
| 154 ± 27 µM | COCCNc1sc(S(=O)(=O)Nc2ccc(Cl)cc2)cc1[N+](=O)[O-] [Compound 80, 5-(2-Methoxy-ethylamino)-4-nitro-thiophene-2-sulfonic acid (4-chloro-phenyl)-amide] |
| 147 µM | O=S(=O)(Nc1cc(C(F)(F)F)cc(C(F)(F)F)c1)c1ccc(S(=O)(=O)c2ccccc2)s1 [Compound 117, 5-Benzenesulfonyl-thiophene-2-sulfonic acid (3,5-bis-trifluoromethyl-phenyl)-amide] |
| 305 µM | O=S(=O)(Nc1ccc(Cl)cc1Cl)c1ccc(S(=O)(=O)c2ccccc2)s1 [Compound 118, 5-Benzenesulfonyl-thiophene-2-sulfonic acid (2,4-dichloro-phenyl)-amide] |
| 165 ± 8 µM | O=S(=O)(Nc1cc(C(F)(F)F)cc(C(F)(F)F)c1)c1ccc2nsnc2c1 [Compound 122, Benzo[1,2,5]thiadiazole-5-sulfonic acid (3,5-bis-trifluoromethyl-phenyl)-amide] |
| 123 ± 15 µM | Cc1sc(S(=O)(=O)Nc2ccc(Cl)cc2)cc1S(=O)(=O)Nc1ccc(Cl)cc1 [Compound 74, 5-Methyl-thiophene-2,4-disulfonic acid bis-[(4-chloro-phenyl)-amide]] |
| 265 ± 64 µM | O=S(=O)(Nc1cc(C(F)(F)F)cc(C(F)(F)F)c1)c1ccc(-c2ccccn2)s1 [Compound 124, 5-Pyridin-2-yl-thiophene-2-sulfonic acid (3,5-bis-trifluoromethyl-phenyl)-amide] |
| 409 ± 84 µM | O=[N+]([O-])c1cc(S(=O)(=O)Nc2cccc(C(F)(F)F)c2)sc1Cl [Compound 1, 5-Chloro-4-nitrothiophene-2-sulfonic acid (3-trifluoromethylphenyl)amide] |
| 218 ± 15 µM | O=S(=O)(Nc1ccc(C(F)(F)F)cc1)c1cc(Br)c(Cl)s1 [Compound 15, 4-Bromo-5-chlorothiophene-2-sulfonic acid (4-trifluoromethylphenyl)amide] |
| 295 ± 45 µM | O=[N+]([O-])c1cccc(S(=O)(=O)Nc2ccc(Cl)cc2)c1 [Compound 19, N-(4-Chlorophenyl)-3-nitrobenzenesulfonamide] |
| 435 ± 76 µM | O=S(=O)(Nc1cc(C(F)(F)F)cc(C(F)(F)F)c1)c1ccc(Cl)s1 [Compound 11, 5-Chlorothiophene-2-sulfonic acid (3,5-bis-trifluoromethylphenyl)amide] |
| 243 ± 11 µM | O=S(=O)(Nc1cc(C(F)(F)F)cc(C(F)(F)F)c1)c1cc(Cl)c(O)c(Cl)c1 [Compound 95, N-(3,5-Bis-trifluoromethyl-phenyl)-3,5-dichloro-4-hydroxy-benzenesulfonamide] |
| 129 ± 22 µM | O=[N+]([O-])c1cc(S(=O)(=O)Nc2cc(C(F)(F)F)cc(C(F)(F)F)c2)ccc1Cl [Compound 29, N-(3,5-Bis-trifluoromethylphenyl)-4-chloro-3-nitrobenzenesulfonamide] |
| 431 ± 5 µM | O=[N+]([O-])c1cccc(S(=O)(=O)Nc2ccc(C(F)(F)F)cc2)c1 [Compound 100, 3-Nitro-N-(4-trifluoromethyl-phenyl)-benzenesulfonamide] |
| 467 ± 35 µM | Nc1ccc(S(=O)(=O)Nc2ccc(Cl)cc2)cc1Cl [Compound 102, 4-Amino-3-chloro-N-(4-chloro-phenyl)-benzenesulfonamide] |
| 375 ± 39 µM | O=S(=O)(Nc1cc(C(F)(F)F)cc(C(F)(F)F)c1)c1ccc2c(c1)OCCO2 [Compound 86, 2,3-Dihydro-benzo[1,4]dioxine-6-sulfonic acid (3,5-bis-trifluoromethyl-phenyl)-amide] |
| 212 ± 27 µM | O=S(=O)(Nc1ccc(Cl)cc1)c1ccc(Oc2ccccc2)nc1 [Compound 87, 6-Phenoxy-pyridine-3-sulfonic acid (4-chloro-phenyl)-amide] |

| IC50 | Compound |
| --- | --- |
| 209 ± 38 µM | O=[N+]([O-])c1cccc(S(=O)(=O)Nc2cc(C(F)(F)F)cc(C(F)(F)F)c2)c1 [Compound 21, N-(3,5-Bis-trifluoromethylphenyl)-3-nitrobenzenesulfonamide] |
| 242 µM | O=S(=O)(NCc1ccc(C(F)(F)F)cc1)c1cc(Cl)c(O)c(Cl)c1 [Compound 110, 3,5-Dichloro-4-hydroxy-N-(4-trifluoromethyl-benzyl)-benzenesulfonamide] |
| 432 ± 7 µM | O=S(=O)(Nc1ccc(Cl)cc1)c1ccc2c(c1)OCCO2 [Compound 85, 2,3-Dihydro-benzo[1,4]dioxine-6-sulfonic acid (4-chloro-phenyl)-amide] |
| 408 ± 31 µM | O=S(=O)(Nc1ccc(F)cc1)c1cc(S(=O)(=O)Nc2ccc(F)cc2)c(Cl)s1 [Compound 32, 5-Chlorothiophene-2,4-disulfonic acid bis-[(4-fluorophenyl)-amide]] |
| 288 ± 39 µM | O=S(=O)(Nc1cc(Cl)cc(Cl)c1)c1ccc(S(=O)(=O)c2ccccc2)s1 [Compound 25, 5-Benzenesulfonylthiophene-2-sulfonic acid (3,5-dichlorophenyl)amide] |
| 331 ± 52 µM | CCOC(=O)c1[nH]c(C)c(S(=O)(=O)Nc2ccc(Cl)cc2)c1C [Compound 90, 4-(4-Chloro-phenylsulfamoyl)-3,5-dimethyl-1H-pyrrole-2-carboxylic acid ethyl ester] |
| 40 ± 1 µM | O=[N+]([O-])c1cc(S(=O)(=O)Nc2nc3ccccc3[nH]2)sc1Cl [Compound 59, 5-Chloro-4-nitro-thiophene-2-sulfonic acid (1H-benzo-imidazol-2-yl)-amide] |
| 237 ± 35 µM | CCc1sc(S(=O)(=O)Nc2ccc(Cl)cc2)cc1[N+](=O)[O-] [Compound 71, 5-Ethyl-4-nitro-thiophene-2-sulfonic acid (4-chloro-phenyl)-amide] |
| 295 ± 36 µM | O=S(=O)(Nc1ccc(Cl)c(Cl)c1)c1ccc(Cl)s1 [Compound 26, 5-Chlorothiophene-2-sulfonic acid (3,4-dichlorophenyl)amide] |
| 146 ± 5 µM | O=S(=O)(Nc1ccc(C(F)(F)F)cc1)c1ccc(S(=O)(=O)c2ccccc2)s1 [Compound 23, 5-Benzenesulfonylthiophene-2-sulfonic acid (4-trifluoromethylphenyl)-amide] |
| 451 ± 118 µM | O=C(O)c1cccc(S(=O)(=O)Nc2cc(C(F)(F)F)cc(C(F)(F)F)c2)c1 [Compound 108, 3-(3,5-Bis-trifluoromethyl-phenylsulfamoyl)-benzoic acid] |
| 315 ± 83 µM | Cn1nc(-c2ccc(S(=O)(=O)N(Cc3cccc(C(F)(F)F)c3)c3cc(C(F)(F)F)cc(C(F)(F)F)c3)s2)cc1C(F)(F)F [Compound 78, 5-(1-Methyl-5-tri-fluoromethyl-1H-pyrazol-3-yl)-thiophene-2-sulfonic acid (3,5-bis-tri-fluoromethyl-phenyl)-(3-trifluoro-methyl-benzyl)-amide] |
| 174 ± 11 µM | Cc1c(S(=O)(=O)Nc2ccc(Cl)c([N+](=O)[O-])c2)sc2ccc(Cl)cc12 [Compound 88, 5-Chloro-3-methyl-benzo[b]thiophene-2-sulfonic acid (4-chloro-3-nitro-phenyl)-amide] |
| 67 ± 1 µM | O=[N+]([O-])c1cc(S(=O)(=O)Nc2ccccc2)sc1Cl [Compound 62, 5-Chloro-4-nitro-thiophene-2-sulfonic acid phenylamide] |
| 246 µM | O=S(=O)(Nc1cc(Cl)cc(Cl)c1)c1ccc(-c2ncco2)cc1 [Compound 113, N-(3,5-Dichloro-phenyl)-4-oxazol-2-yl-benzenesulfonamide] |
| 249 ± 30 µM | CC(C)CN(c1ccc(Cl)cc1)S(=O)(=O)c1cc([N+](=O)[O-])c(Cl)s1 [Compound 58, 5-Chloro-4-nitro-thiophene-2-sulfonic acid (4-chloro-phenyl)-isobutyl-amide] |
| 320 µM | O=S(=O)(Nc1ccc(Cl)cc1)c1ccc(Cl)s1 [Compound 10, 5-Chlorothiophene-2-sulfonic acid (4-chlorophenyl)amide] |
| 373 ± 373 µM | CCOC(=O)c1sc(S(=O)(=O)Nc2ccc(Cl)cc2)nc1C [Compound 93, 2-(4-Chloro-phenylsulfamoyl)-4-methyl-thiazole-5-carboxylic acid ethyl ester] |
| 448 µM | O=S(=O)(NCCc1c[nH]c2ccccc12)c1cc(Cl)c(O)c(Cl)c1 [Compound 111, 3,5-Dichloro-4-hydroxy-N-[2-(1H-indol-3-yl)-ethyl]-benzenesulfonamide] |
| 198 ± 17 µM | O=S(=O)(Nc1ccc(Cl)cc1)c1cc(Br)c(Br)s1 [Compound 125, 4,5-Dibromo-thiophene-2-sulfonic acid (4-chloro-phenyl)-amide] |
